From patent publication US8729082B2, “Substituted imidazoquinoxalines” (Bayer Intellectual Property GmbH, priority 2009, dated 2014)
pIC50: −log10 of the molar value.

The compounds below were run against T1, human kinase Mps-1 (Homo sapiens, UniProt P33981) (assay: Mps-1 kinase assay (HTRF)). Details: lowATP; mean; read-out: Mps1 lowATP mean IC50.
T1 construct: N-terminally GST-tagged human full length recombinant Mps-1 kinase; purchased Invitrogen, Karslruhe, Germany PV4071
T1 sequence (P33981 1-857): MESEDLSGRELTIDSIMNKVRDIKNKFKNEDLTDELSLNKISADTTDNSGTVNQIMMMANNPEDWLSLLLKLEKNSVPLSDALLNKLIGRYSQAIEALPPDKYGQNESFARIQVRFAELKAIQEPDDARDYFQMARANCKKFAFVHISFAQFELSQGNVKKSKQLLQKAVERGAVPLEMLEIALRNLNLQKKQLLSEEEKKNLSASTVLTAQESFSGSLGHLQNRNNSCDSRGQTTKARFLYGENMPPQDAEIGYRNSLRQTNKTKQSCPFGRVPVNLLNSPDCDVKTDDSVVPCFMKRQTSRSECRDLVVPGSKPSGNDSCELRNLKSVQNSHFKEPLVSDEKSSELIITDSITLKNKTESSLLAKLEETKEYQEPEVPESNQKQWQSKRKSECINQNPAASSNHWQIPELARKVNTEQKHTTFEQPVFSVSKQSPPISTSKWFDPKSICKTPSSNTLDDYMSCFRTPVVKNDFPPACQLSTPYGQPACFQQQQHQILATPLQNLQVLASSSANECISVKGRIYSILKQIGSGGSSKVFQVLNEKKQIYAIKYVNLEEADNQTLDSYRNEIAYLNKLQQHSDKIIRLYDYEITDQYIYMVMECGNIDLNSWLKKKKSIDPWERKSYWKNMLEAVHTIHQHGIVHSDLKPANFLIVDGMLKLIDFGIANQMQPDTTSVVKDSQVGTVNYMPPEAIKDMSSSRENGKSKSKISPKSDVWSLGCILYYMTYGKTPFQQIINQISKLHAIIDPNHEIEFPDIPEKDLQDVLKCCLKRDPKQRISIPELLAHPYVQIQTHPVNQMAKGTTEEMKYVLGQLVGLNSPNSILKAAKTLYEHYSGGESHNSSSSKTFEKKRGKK
Assay type: biochemical
Procedure, shortened: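 HTRF readout: EDTA-stopped reactions incubated 1 h with europium anti-phospho(Ser/Thr) antibody and streptavidin-XLent, emission ratio 665/620 nm after 350 nm excitation. Kinase step: compound pre-bound 15 min to ~1 nM GST-Mps-1, then 60 min at 22 °C with ATP and biotin-peptide substrate; inhibition scaled between no-inhibitor (0%) and no-enzyme (100%) controls.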

Structure (SMILES) | pIC50
O=C(NC1CC1)c1ccc(-c2cnc3c(NCCCO)nc4ccc(F)cc4n23)cc1 [Example 2-50, N-cyclopropyl-4-{8-fluoro-4-[(3-hydroxypropyl)amino]imidazo[1,2-a]quinoxalin-1-yl}benzamide] | 6.81
CCCCNc1nc2ccc(F)cc2n2c(-c3ccc(C(=O)NC4CC4)cc3)cnc12 [Example 2-51, 4-[4-(butylamino)-8-fluoroimidazo[1,2-a]quinoxalin-1-yl]-N-cyclopropylbenzamide] | 7.41
O=C(NC1CC1)c1ccc(-c2cnc3c(NCC4CC4)nc4ccc(F)cc4n23)cc1 [Example 2-52, N-cyclopropyl-4-{4-[(cyclopropylmethyl)amino]-8-fluoroimidazo[1,2-a]quinoxalin-1-yl}benzamide] | 7.32
O=C(NC1CC1)c1ccc(-c2cnc3c(NCc4ccccn4)nc4ccc(F)cc4n23)cc1 [Example 2-53, N-cyclopropyl-4-{8-fluoro-4-[(pyridin-2-ylmethyl)amino]imidazo[1,2-a]quinoxalin-1-yl}benzamide] | 5.98
O=C(NC1CC1)c1ccc(-c2cnc3c(NCc4cccnc4)nc4ccc(F)cc4n23)cc1 [Example 2-54, N-cyclopropyl-4-{8-fluoro-4-[(pyridin-3-ylmethyl)amino]imidazo[1,2-a]quinoxalin-1-yl}benzamide] | 7.01
CC(C)CNc1nc2ccc(F)cc2n2c(-c3ccc(C(=O)NC4CC4)cc3)cnc12 [Example 2-55, N-cyclopropyl-4-{8-fluoro-4-[(2-methylpropyl)amino]imidazo[1,2-a]quinoxalin-1-yl}benzamide] | 7.55
NC(=O)CCNc1nc2ccc(F)cc2n2c(-c3ccc(C(=O)NC4CC4)cc3)cnc12 [Example 2-56, 4-{4-[(3-amino-3-oxopropyl)amino]-8-fluoroimidazo[1,2-a]quinoxalin-1-yl}-N-cyclopropylbenzamide] | 6.42
COCCCNc1nc2ccc(F)cc2n2c(-c3ccc(C(=O)NC4CC4)cc3)cnc12 [Example 2-57, N-cyclopropyl-4-{8-fluoro-4-[(3-methoxypropyl)amino]imidazo[1,2-a]quinoxalin-1-yl}benzamide] | 6.75
Cn1cc(CNc2nc3ccc(F)cc3n3c(-c4ccc(C(=O)NC5CC5)cc4)cnc23)cn1 [Example 2-58, N-cyclopropyl-4-(8-fluoro-4-{[(1-methyl-1H-pyrazol-4-yl)methyl]amino}imidazo[1,2-a]quinoxalin-1-yl)benzamide] | 6.98
O=C(NC1CC1)c1ccc(-c2cnc3c(NCC(O)CO)nc4ccc(F)cc4n23)cc1 (stereo not shown) [Example 2-59, N-cyclopropyl-4-{4-[(2,3-dihydroxypropyl)amino]-8-fluoroimidazo[1,2-a]quinoxalin-1-yl}benzamide] | 6.32
CNC(=O)Nc1ccc(-c2cnc3c(NCCCN4CCCC4=O)nc4ccc(F)cc4n23)cc1 [Example 2-60, 1-[4-(8-fluoro-4-{[3-(2-oxopyrrolidin-1-yl)propyl]amino}imidazo[1,2-a]quinoxalin-1-yl)phenyl]-3-methylurea] | 4.89
CNC(=O)Nc1ccc(-c2cnc3c(NCCOC)nc4ccc(F)cc4n23)cc1 [Example 2-61, 1-(4-{8-fluoro-4-[(2-methoxyethyl)amino]imidazo[1,2-a]quinoxalin-1-yl}phenyl)-3-methylurea] | 5.14
CNC(=O)Nc1ccc(-c2cnc3c(NCc4ccccc4F)nc4ccc(F)cc4n23)cc1 [Example 2-62, 1-(4-{8-fluoro-4-[(2-fluorobenzyl)amino]imidazo[1,2-a]quinoxalin-1-yl}phenyl)-3-methylurea] | 4.76
CNC(=O)Nc1ccc(-c2cnc3c(NCCCCO)nc4ccc(F)cc4n23)cc1 [Example 2-63, 1-(4-{8-fluoro-4-[(4-hydroxybutyl)amino]imidazo[1,2-a]quinoxalin-1-yl}phenyl)-3-methylurea] | 5.79
CNC(=O)Nc1ccc(-c2cnc3c(NCC(F)(F)F)nc4ccc(F)cc4n23)cc1 [Example 2-64, 1-(4-{8-fluoro-4-[(2,2,2-trifluoroethyl)amino]imidazo[1,2-a]quinoxalin-1-yl}phenyl)-3-methylurea] | 5.17
CNC(=O)Nc1ccc(-c2cnc3c(NCCCO)nc4ccc(F)cc4n23)cc1 [Example 2-65, 1-(4-{8-fluoro-4-[(3-hydroxypropyl)amino]imidazo[1,2-a]quinoxalin-1-yl}phenyl)-3-methylurea] | 5.27

Structure (SMILES) | pIC50
CNC(=O)Nc1ccc(-c2cnc3c(NCCNC(C)=O)nc4ccc(F)cc4n23)cc1 [Example 2-66, N-{2-[(8-fluoro-1-{4-[(methylcarbamoyl)amino]phenyl}imidazo[1,2-a]quinoxalin-4-yl)amino]ethyl}acetamide] | 4.93
CNC(=O)Nc1ccc(-c2cnc3c(NCCCn4ccnc4)nc4ccc(F)cc4n23)cc1 [Example 2-67, 1-[4-(8-fluoro-4-{[3-(1H-imidazol-1-yl)propyl]amino}imidazo[1,2-a]quinoxalin-1-yl)phenyl]-3-methylurea] | 5.50
CNC(=O)Nc1ccc(-c2cnc3c(NCc4cccnc4)nc4ccc(F)cc4n23)cc1 [Example 2-68, 1-(4-{8-fluoro-4-[(pyridin-3-ylmethyl)amino]imidazo[1,2-a]quinoxalin-1-yl}phenyl)-3-methylurea] | 5.53
CNC(=O)Nc1ccc(-c2cnc3c(NCc4ccncc4)nc4ccc(F)cc4n23)cc1 [Example 2-69, 1-(4-{8-fluoro-4-[(pyridin-4-ylmethyl)amino]imidazo[1,2-a]quinoxalin-1-yl}phenyl)-3-methylurea] | 5.43
CNC(=O)Nc1ccc(-c2cnc3c(NCc4ccco4)nc4ccc(F)cc4n23)cc1 [Example 2-70, 1-(4-{8-fluoro-4-[(furan-2-ylmethyl)amino]imidazo[1,2-a]quinoxalin-1-yl}phenyl)-3-methylurea] | 5.29
CNC(=O)Nc1ccc(-c2cnc3c(NCCCOC)nc4ccc(F)cc4n23)cc1 [Example 2-71, 1-(4-{8-fluoro-4-[(3-methoxypropyl)amino]imidazo[1,2-a]quinoxalin-1-yl}phenyl)-3-methylurea] | 5.31
CNC(=O)Nc1ccc(-c2cnc3c(NCc4cnn(C)c4)nc4ccc(F)cc4n23)cc1 [Example 2-72, 1-[4-(8-fluoro-4-{[(1-methyl-1H-pyrazol-4-yl)methyl]amino}imidazo[1,2-a]quinoxalin-1-yl)phenyl]-3-methylurea] | 5.60
CNC(=O)Nc1ccc(-c2cnc3c(NCCS(N)(=O)=O)nc4ccc(F)cc4n23)cc1 [Example 2-73, 2-[(8-fluoro-1-{4-[(methylcarbamoyl)amino]phenyl}imidazo[1,2-a]quinoxalin-4-yl)amino]ethanesulfonamide] | 5.00
CNC(=O)Nc1ccc(-c2cnc3c(NCC(O)CO)nc4ccc(F)cc4n23)cc1 (stereo not shown) [Example 2-74, 1-(4-{4-[(2,3-dihydroxypropyl)amino]-8-fluoroimidazo[1,2-a]quinoxalin-1-yl}phenyl)-3-methylurea] | 4.99
CCCNc1nc2ccc(F)cc2n2c(-c3ccc(C(=O)NC4CC4)c(Cl)c3)cnc12 [Example 2-75, 2-chloro-N-cyclopropyl-4-[8-fluoro-4-(propylamino)imidazo[1,2-a]quinoxalin-1-yl]benzamide] | 5.97
O=C(NC1CC1)c1ccc(-c2cnc3c(NCCCN4CCOCC4)nc4ccc(F)cc4n23)cc1Cl [Example 2-76, 2-chloro-N-cyclopropyl-4-(8-fluoro-4-{[3-(morpholin-4-yl)propyl]amino}imidazo[1,2-a]quinoxalin-1-yl)benzamide] | 4.96
O=C(NC1CC1)c1ccc(-c2cnc3c(NCCCN4CCCC4=O)nc4ccc(F)cc4n23)cc1Cl [Example 2-77, 2-chloro-N-cyclopropyl-4-(8-fluoro-4-{[3-(2-oxopyrrolidin-1-yl)propyl]amino}imidazo[1,2-a]quinoxalin-1-yl)benzamide] | 4.99
COCCNc1nc2ccc(F)cc2n2c(-c3ccc(C(=O)NC4CC4)c(Cl)c3)cnc12 [Example 2-78, 2-chloro-N-cyclopropyl-4-{8-fluoro-4-[(2-methoxyethyl)amino]imidazo[1,2-a]quinoxalin-1-yl}benzamide] | 5.17
O=C(NC1CC1)c1ccc(-c2cnc3c(NCCCCO)nc4ccc(F)cc4n23)cc1Cl [Example 2-79, 2-chloro-N-cyclopropyl-4-{8-fluoro-4-[(4-hydroxybutyl)amino[imidazo]1,2-a]quinoxalin-1-yl}benzamide] | 5.87
O=C(NC1CC1)c1ccc(-c2cnc3c(NCCCO)nc4ccc(F)cc4n23)cc1Cl [Example 2-80, 2-chloro-N-cyclopropyl-4-{8-fluoro-4-[(3-hydroxypropyl)amino]imidazo[1,2-a]quinoxalin-1-yl}benzamide] | 5.52
